In assay [1] the test system is patients with hyperthyroidism. Briefly: Cardiac contractility with propranolol, data of Merillon et al. (Example 8). In kind it is in vivo, human. The conditions noted are these: administration of propranolol. The method, then:
(§1) The capability of the method of the present invention to assess cardiac contractility was evaluated using data from several experiments published in the literature and suitable for analysis. In this approach, afterload in the method was expressed as systolic pressure. Since different methodologies to measure cardiac contractility were used, the comparison between them was attained by analyzing the amount of changes (delta values) and were statistically treated using paired t test, ANOVA, correlation, and agreement between methods when applicable, as, for example, described in Lancet, Vol. 1, pages 307 to 310 (1986) by Bland et al.
Cardiovascular data was utilized from “Left Ventricular Function and Hyperthyroidism,” Br. Heart J., Vol. 46, pages 137 to 143 (1981) by Merillon et al. In patients with hyperthyroidism and invasive assessment of ventricular function, the administration of propranolol produced a fall in cardiac contractility. This change was similar when the inotropic state was assessed by means of P/V ratio (−28%), ejection fraction (−19%), dP/dt (−20%), and dP/dt/TP (−19%). Use of the method of the present invention gave a value for the change in cardiac contractility of −17%.

Assay [2] deals with Conscious Dog. Briefly: Changes in preload, afterload and inotropic state, data of Mahler et al. (Example 13). In kind it is in vivo. The method, then:
as §1
Cardiovascular data was utilized from “Effects of Changes in Preload, Afterload and Inotropic State on Ejection and Isovolumic Phase Measures of Contractility in the Conscious Dog,” Am. J. Cardiol., Vol. 35, pages 623 to 634 (1975) by Mahler et al. In this study, increase in preload was attained by Ringer's solution infusion, and rise of blood pressure with phenylephrine administration. […] The method of this invention was less sensitive than the other indices to measure changes in the inotropic state induced with isoproterenol or propranolol.

The subject of assay [3] is patients with hyperthyroidism. The conditions noted are these: administration of propranolol; cited from earlier work.
Assay [4] relates to Conscious Dog. The conditions noted are these: cited from earlier work.

The structures appear in SMILES notation.

For the molecule `CC(C)NCC(O)COc1cccc2ccccc12` (centres unmarked) [Propranolol, propranolol], in assay [1], the “Change in cardiac contractility, method of the present invention” value is listed as −17%. In assay [2] (Example 13, animals, control 100.0), the “Method of This Invention Avg. Value” turned out to be 95.2. Further, the “Change, method of the present invention” value in assay [2] (conscious dog) is on record as −4.8%. Further, in assay [3], the “Change in inotropic state, ESP/ESV” value was −32%; the “Change in inotropic state, P/V ratio” value is on record as −28%; the “Change in inotropic state, dP/dt” value is given as −20%; the “Change in inotropic state, dP/dt/TP” value is recorded as −19%. Moreover, in assay [3], the “Change in inotropic state, ejection fraction” value is listed as −19% and the “Change in inotropic state, velocity of shortening” value is −32%. Also, in assay [4] (Example 13, animals), the “Vcf Avg. Value (velocity of shortening)” value is listed as 1.80 circulation per second and the “dP/dT Avg. Value” was 3000 mm Hg per second. For the same molecule, in assay [4] (conscious dog), the “Change, Vcf” value was −18%; the “Change, dP/dt” value was −18%; the “Change, dP/dt DP40” value was −13%.

Values taken from patent publication US6939303B2, “Method and system of determining cardiac contractility” (Provecto Tecnico R-2000, Ca, priority 1999, dated 2005).
